From PubChem BioAssay AID1845201 (Molecular Pharmacology Branch, DTP, NCI, 2023)
Several values for one entry are separate records, joined by “and”; a condition that tells them apart may be missing. Equal values may be shown once.

Tested on: COR L88 complex tumor spheroid viability
Experiment: Anticancer human tumor COR L88 cell line growth inhibition;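 further: compound exposure lasted 7 days before viability readout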;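 on viability, T/C: percent of DMSO vehicle-treated spheroids = 100%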
Conditions: for viability, T/C: stronger effect = lower value
Excerpt: Multicellular complex tumor spheroid response to DNA repair inhibitors in combination with DNA-damaging drugs
This study explores the anticancer activities of DNA-damaging drugs and inhibitors of DNA damage repair, both as single agents and in combinations. Complex tumor spheroids comprised of malignant cells, endothelial cells and mesenchymal stem cells served as an in vitro model for human solid tumors. This model system incorporates physiologically relevant features and patient-derived or established malignant cell lines with clinically relevant genetic alterations from many tumor types. Twenty-six patient-derived or established malignant cell lines were evaluated representing sarcoma, melanoma, small cell lung cancer (SCLC), non-small cell lung cancer (NSCLC), as well as bladder, ovarian and pancreatic cancers. The concentration ranges selected for each drug and investigational agent were based upon clinically achievable concentrations if the clinical Cmax of the agent was known.
Compounds. The drugs and compounds olaparib (NSC753686), talazoparib (NSC767125), berzosertib (NSC777718), elimusertib (NSC800525), nedisertib (NSC802822), VX-984 (NSC792969), AZD-1390 (NSC803789), temozolomide (NSC362856), topotecan (NSC609699), trabectedin (NSC813783), staurosporine (NSC755774), and gemcitabine (NSC613327) were obtained from the National Cancer Institute (NCI) Developmental Therapeutics Program Chemical Repository. The FDA-approved anticancer drug set is available from the Developmental Therapeutics Program at https://dtp.cancer.gov/organization/dscb/obtaining/available_plates.htm. […] The stock solutions were prepared in dimethyl sulfoxide (DMSO, Sigma-Aldrich, St. Louis, MO, cat. D2650) at 400-fold the tested concentration and stored at -70 degrees C. Prior to their use, the stock solutions were diluted in fresh medium and the final DMSO concentration in the assay was 0.25% (v/v). All drugs and investigational agents were tested over a range starting from a high concentration at or near the clinical Cmax and decreasing in half-log increments. If the clinical Cmax for an agent had not been determined, the highest concentration tested was 10 microM.
Cell Lines. The patient-derived cancer cell (PDC) lines: 156681-154-R-J1-PDC, 283228-195-R-J1-PDC, 287954-098-R-J1-PDC, 292921-168-R-J2-PDC, 349418-098-R-PDC, 425362-245-T-J1-PDC, 556581-035-R-J1-PDC, and BL0293-F563-PDC were received from the NCI Patient-Derived Models Repository (PDMR, https://pdmr.cancer.gov). The established cell lines HS-SY-2 (RRID:CVCL_8719), MPNST, and SYO-1 (RRID:CVCL_7146) were obtained from the Sloan Kettering Institute. The alveolar soft parts sarcoma cell line ASPS-1 (RRID:CVCL_S738) was established at the NCI and grown from internal seed stocks. The following established cell lines were purchased from the American Type Culture Collection (ATCC, Manassas, VA): G-401 (ATCC, cat. CRL-1441, RRID:CVCL_0270), SW982 (ATCC, cat. HTB-93, RRID:CVCL_1734), VA-ES-BJ (ATCC, cat. CRL-2138, RRID:CVCL_1785), NCI-H719 (ATCC, cat. CRL-5837, RRID:CVCL_1582), NCI-H196 (ATCC, cat. CRL-5823, RRID:CVCL_1509), NCI-H841 (ATCC, cat. CRL-5845, RRID:CVCL_1595), NCI-H1618 (ATCC, cat. CRL-5879, RRID:CVCL_1480), NCI-H1876 (ATCC, cat. CRL-5902, RRID:CVCL_1503), DMS 114 (ATCC, cat. CRL-2066; RRID:CVCL_1174), NCI-H211 (ATCC, cat. CRL-5824; RRID:CVCL_1529), and SW 1271 (ATCC, cat. CRL-2177, RRID:CVCL_1716). The small cell lung cancer cell line COR-L88 was purchased from Sigma-Aldrich (cat. 92031917-1VL, RRID:CVCL_1141). The non-small cell lung cancer cell lines NCI-H226 (RRID:CVCL_1544) and NCI-H322M (RRID:CVCL_1557) were established at the NCI and grown from internal seed stocks. Pooled donor human umbilical vein endothelial cells (HUVEC, Lonza, cat. CC-2519) and human mesenchymal stem cells (hMSC, Lonza, cat. PT-2501) were purchased from Lonza (Walkersville, MD).
Cell Culture. All cells were maintained in an incubator at 37 degrees C and 5% CO2 with 95% humidity. […]

[1] = compound alone, run of 10/17/2019
[2] = compound alone, run of 10/25/2019

| Structure (SMILES) | viability, T/C (compound 0.0316 µM) | viability, T/C (compound 0.1 µM) | viability, T/C (compound 0.316 µM) | viability, T/C (compound 1 µM) | viability, T/C (compound 3.16 µM) | viability, T/C (compound 10 µM) | IC50 (curve of compound) | viability, T/C (compound 0.00949 µM) | viability, T/C (compound 0.03 µM) | viability, T/C (compound 0.0949 µM) | viability, T/C (compound 0.3 µM) | viability, T/C (compound 0.949 µM) | viability, T/C (compound 3 µM) | further results |
| --- | --- | --- | --- | --- | --- | --- | --- | --- | --- | --- | --- | --- | --- | --- |
| CC(C)n1c(=O)n(C)c2cnc3cc(F)c(-c4ccc(OCCCN5CCCCC5)nc4)cc3c21 | 103% and 92.5% and 102% | 113% and 103% (2×) | 110% and 99.5% and 98.2% | 94.8% and 88.6% and 99% | 95.3% and 89.8% and 87.5% | 56.5% and 61% and 56.6% | > 10000 nM |  |  |  |  |  |  |  |
| CC1COCCN1c1cc(-c2ccnn2C)c2ccnc(-c3ccn[nH]3)c2n1 (stereo not drawn) | 94.4% and 93.6% and 97.8% | 59.7% and 70.8% and 77% | 34.2% and 52% and 53.1% | 22.5% and 30.1% and 36% | 9.11% and 13.8% and 14.6% | 3.91% and 5.8% and 5.02% | 159 nM and 319 nM and 403 nM |  |  |  |  |  |  |  |
| CC[C@@]1(O)C(=O)OCc2c1cc1n(c2=O)Cc2cc3c(CN(C)C)c(O)ccc3nc2-1 |  |  |  |  |  |  |  | 76% [middle of 10 runs] | 55% [middle of 10 runs] | 52% [middle of 10 runs] | 48.1% [middle of 10 runs] |  |  | IC50 [1]: 45.7 nM [middle of 5 runs]; IC50 [2]: > 300 nM and 163 nM and 172 nM |
| CNCc1ccc(-c2cc(-c3nc(-c4ccc(S(=O)(=O)C(C)C)cc4)cnc3N)on2)cc1 |  |  |  |  |  |  | 753 nM and 848 nM and 391 nM | 98.5% and 103% and 105% | 111% and 118% and 104% | 109% and 107% and 101% | 87% and 84.6% and 56.4% | 40.9% and 47.2% and 22.6% | 11.8% and 11.3% and 5.68% |  |
| COc1cc(C)[nH]c(=O)c1CN1CCc2c(Cl)cc(C(OC)C3COC3)c(Cl)c2C1=O (stereo not drawn) | 109% and 91.5% and 89.8% | 100% and 89.6% and 97% | 95.5% and 80.1% and 98.1% | 89.2% and 76.7% and 91.4% | 96.1% and 84.8% and 85.8% | 92.2% and 75.5% and 90.1% | > 10000 nM |  |  |  |  |  |  |  |
| COc1cc2c(cc1O)CCNC21CSC2c3c(OC(C)=O)c(C)c4c(c3C(COC1=O)N1C(O)C3Cc5cc(C)c(OC)c(O)c5C(C21)N3C)OCO4 (stereo not drawn) |  |  |  |  |  |  |  |  |  |  |  |  |  | viability, T/C (compound 30 pM): 103% [middle of 10 runs]; viability, T/C (compound 94.9 pM): 110% [middle of 10 runs]; viability, T/C (compound 0.0003 µM): 71.5% [middle of 10 runs]; viability, T/C (compound 0.000949 µM): 59.8% [middle of 10 runs]; viability, T/C (compound 0.003 µM): 0.67% [middle of 10 runs]; IC50 [2]: 1.02 nM [middle of 10 runs] |
| COc1ccc([C@@H](O)c2cc(-c3ncnc4cc(N5CCOCC5)ccc34)c(F)cc2Cl)nn1 | 108% and 105% and 101% | 98.8% and 102% and 98.1% | 103% and 93.9% and 104% | 76.1% and 83% and 81.6% | 56% and 64.4% and 54.8% | 33.7% and 39% and 36.1% | 4010 nM and 6100 nM |  |  |  |  |  |  |  |
| Cc1cc(C)c(CNC(=O)c2cc(-c3ccc(CN4CCOCC4)cc3)cc3c2cnn3C2CCCC2)c(=O)[nH]1 | 92.8% and 89.3% and 93.7% | 102% and 98.3% and 89.8% | 101% and 100% and 96.4% | 84.1% and 93.3% and 95.8% | 85.2% and 88.7% and 77.4% | 44.7% and 56.8% and 52.6% | 8670 nM and > 10000 nM |  |  |  |  |  |  |  |
| Cc1sc2c(c1C)C(c1ccc(Cl)cc1)=NC(CC(=O)Nc1ccc(O)cc1)c1nnc(C)n1-2 (stereo not drawn) |  |  |  |  |  |  | 534 nM and 543 nM and 283 nM | 93.4% and 99.2% and 89.1% | 94.7% and 94.8% and 84.9% | 103% and 94.4% and 85.7% | 63.8% and 67.1% and 47.9% | 37.4% and 33.8% and 21.4% | 20.6% and 19.2% and 17.3% |  |
| Cn1ncnc1[C@H]1c2n[nH]c(=O)c3cc(F)cc(c23)N[C@@H]1c1ccc(F)cc1 |  |  |  |  |  |  | 665 nM and 353 nM and 293 nM | 88.5% and 92.9% and 87.1% | 79.6% and 66.2% and 79.5% | 66.9% and 62.7% and 56% | 59.6% and 54.9% and 49.2% | 43.3% and 45% and 39.5% | 43.6% and 37.6% and 40.6% |  |
| Cn1nnc2c(C(N)=O)ncn2c1=O |  |  |  | 96.2% [middle of 10 runs] | 96.8% [middle of 10 runs] | 95% [middle of 10 runs] |  |  |  |  |  |  |  | viability, T/C (compound 31.6 µM): 84.1% [middle of 10 runs]; viability, T/C (compound 100 µM): 70.6% [middle of 10 runs]; IC50 [1]: > 100000 nM |
| O=C(c1cc(Cc2n[nH]c(=O)c3ccccc23)ccc1F)N1CCN(C(=O)C2CC2)CC1 |  |  |  |  |  |  | > 30000 nM |  |  | 97.2% and 87.7% and 107% | 98.2% and 101% and 103% | 101% and 97.9% and 94.2% | 85.7% and 87.9% and 90.7% | viability, T/C (compound 9.49 µM): 61.5% and 67.3% and 70.3%; viability, T/C (compound 30 µM): 49.8% and 50.5% and 58.2% |
| [2H]c1nc(C)nc([2H])c1-c1cc(NC[C@@H](C)c2cccc3c(C(=O)NC)ccnc23)ncn1 | 101% and 94.7% and 105% | 99.9% and 96.5% and 98.1% | 109% and 101% and 102% | 88.5% and 106% and 102% | 92.1% and 95.2% and 96.4% | 91.8% and 97.2% and 103% | > 10000 nM |  |  |  |  |  |  |  |
